# Measurements: patent publication US20060154895A1, “Method of treating acquired immunedeficiency syndrome” (priority 2004, published 2006)
# How the values were obtained:
# [1] = Tolerance screening: daily IV dose escalation of curdlan sulfate until APTT is doubled (MTD); assay type: in vivo, human; conditions: IV infusion, HIV positive patients
# Method: Patients are selected for treatment with the method of the invention based on the fact that they have previously tested positive for HIV and presently have some detectable level of HIV. Initially, the patients are screened for the effect of curdlan sulfate on coagulation times by measuring the time to coagulation using the activated partial thromboplastin time test (APTT) after IV infusion of 50 mg of curdlan sulfate in over a period of 30 minutes. A test dose of […] of curdlan sulfate is given on the first day and each day thereafter, the dose of curdlan sulfate is increased in 50 mg increments until the APTT is doubled. […] When the MTD is determined for each patient, the MTD is repeated daily for 21 days while the particular dosage regimen of the HAART drugs is continued. After the 21 days of curdlan sulfate therapy is completed, the HAART treatment regimen is also suspended and the viral load is determined daily. If there is no measurable viral load after this treatment, the treatment is deemed to be successful. If the viral load returns to measurable levels for three days, the HAART therapy may be reinstituted followed by another sequence of curdlan sulfate therapy.
# [2] = tested on: T-cells; test: Blood T-cell levels after curdlan sulfate alone in HIV infected patients; assay type: in vivo, human; conditions: curdlan sulfate administered by itself to HIV infected patients
# Source text: The present invention provides a treatment method for HIV infections that is designed to completely eradicate the HIV virus. […] The reappearance of HIV virus in the blood after the interruption of current therapies makes it likely that the HIV virus is capable of being retained in some biological reservoir where current therapies are unable to create an environment that inhibits or destroys the HIV virus. […] The large increase in T-cells is believed to be due to a release or flushing of T-cells from a biological repository or storage site rather than a biological production of new T-cells. This phenomenon has caused the applicants to theorize that the repository or storage site for the T-cells is also a sanctuary for the HIV virus which appears to have an ability to shield itself from the effects of anti-HIV drugs which are circulated in the blood to all of the bodies organs. The invention is directed to the administration of an entry/fusion inhibitor after a HAART drug combination has been administered in an effective amount for a sufficient time to cause the HIV cells to been eradicated from the blood stream. Thereafter, the entry/fusion inhibitor is administered in an effective amount for a sufficient period of time to eradicate the HIV cells.
substance,measurement,setting,value
curdlan sulfate,bleeding at the MTD,[1],no bleeding at the site of injection or elsewhere is detected
same,detectable blood levels of T-cells,[2],large increases in detectable bloods levels of T-cells
